Reference: patent US9089568B2, “Method of using compatible solutes containing ectoine and/or hydroxyectoine” (Bitop AG, priority 2005, dated 2015)

Columns and labels:
[1] = tested on: chronically inflammable intestinal disease; assay: mouse model for Crohn's disease, oral compatible solutes; type: in vivo; conditions: oral ingestion
Description: Moreover, immunological investigations have shown that the TH-2 TH-1 approach typically adopted for the chronically inflammable intestinal disease may to some extent be circumvented by “compatible solutes”. However, the positive effect of “compatible solutes” is not only limited to an alleviation of the symptoms of chronically inflammable intestinal diseases but in addition is characterized by a pronounced preventive potential. […] It is to be assumed that such a preventive effect but also the therapeutic effect is primarily attributable to the anti-inflammatory properties of “compatible solutes” which on the one hand are aimed at the intestinal epithelial cell but also at the helper T lymphocytes deemed to be the cause of the pathogenesis.

amyloid fibrils = conditions: in vitro; Arora et al. (2004); cited from earlier work
amyloid plaques = assay: amyloid plaque formation in mice after oral application; type: in vivo
Description: Unexpectedly, it has now been ascertained from investigations with mice is involving the oral application of compatible solutes ectoine, hydroxyectoine and firoin A that this enabled the formation of amyloid plaques to be reduced. Likewise, through the administration of compatible solutes the occurrence of neuropathologic effects could be reduced. […] It is to be assumed that such a preventive effect but nevertheless the therapeutic effect as well is primarily attributable to the amyloid-inhibiting properties of “compatible solutes”.

Q: What does the source list for `CC1=NCCC(C(=O)O)N1` (centres unmarked) [ectoine, 2-methyl-4-carboxy-3,4,5,6-tetrahydropyrimidine]?
A: course of chronically inflammable intestinal diseases [1]: favorably influenced; formation of protein deposits, so-called amyloid fibrils (amyloid fibrils): inhibit; formation of amyloid plaques (amyloid plaques): reduced

Q: For `NC(=O)[C@H](CO)O[C@@H]1O[C@H](CO)[C@@H](O)[C@H](O)[C@@H]1O` [firoin A, mannosylglyceramide], which “formation of amyloid plaques” value (amyloid plaques) is on record?
A: reduced

Q: Which “formation of amyloid plaques” value (amyloid plaques) does the source give for `CC1=NCC(O)C(C(=O)O)N1` (centres unmarked) [hydroxyectoine, 2-methyl-4-carboxy-5-hydroxy-3,4,5,6-tetrahydropyrimidine] here?
A: reduced
